Experimental data as given in patent publication US9006440B2, “Furopyridine derivatives” (Merck Patent GmbH, priority 2010, dated 2015).

Molecular target: T1, Syk (Homo sapiens, UniProt P43405)
T1 construct: purchased BPS Bioscience, CA, USA
Experiment: Syk enzyme assay (SYK flash plate assay / Caliper mobility shift)
Assay type: biochemical
Experimental: The kinase assay is performed either as 384-well Flashplate assay (for e.g. Topcount measurement) or as 384-well Image-Flashplate assay (for LEADseeker measurement).
2.5 nM SYK, 400 nM Biotin-Aha-Aha-KEDPDYEWPSAKK
and 10 μM ATP (spiked with 0.3 μCi 33P-ATP/well) are incubated in a total volume of 50 μl (60 mM Hepes, 10 mM MgCl2, 1.2 mM Dithiothreitol, 0.02% Brij35, 0.1% BSA, pH 7.5) with or without test compound for 1 hours at 30° C. The reaction is stopped with 25 μl 200 mM EDTA. After 30 Min at 30° C. the liquid is removed and each well washed thrice with 100 μl 0.9% sodium chloride solution. Non-specific reaction is determined in presence of 0.1 μM Staurosporine. Radioactivity is measured with Topcount (when using Flashplates) or with LEADseeker (when using Image-Flashplates) respectively. Results (e.g. IC50-values) are calculated with program tools provided by the IT-department (e.g. Symyx Assay Explorer, Genedata Screener). Enzymatic Assays Using the Caliper LifeSciences Technology
The assays described here are performed on the Caliper Life Sciences LC3000 system This technology provides data on enzyme activity via measurement of the relative amounts of phosphorylated or unphosphorylated fluorescently labelled substrate peptide at the end of an enzymatic reaction. These different states of peptide are resolved by applying a potential difference across the sample. The presence of the charged phosphate group on the product (as opposed to the substrate) causes a different peptide mobility between the two peptides. This is visualized by excitation of the fluorescent label on the substrate and product peptides and represented as peaks within the analysis software.
In order to measure inhibitor activity of kinase inhibitors on this technology, a TTP Mosquito liquid handling instrument is used to place 0.25 ul of the appropriate concentration of inhibitor in 100% DMSO (for a dose response curve calculation) into each well of a 384-well plate. To this reaction components are added to a final volume of 25 ul. The table below indicates the sequences and concentrations for the assays described in this report. Standard components are 1 mM DTT (Sigma, D0632), 1 mM MgCl2 (Sigma, M1028), 100 mM HEPES pH 7.5 (Calbiochem, 391338), 0.015% Brij-35 (Sigma, B4184).
The reaction is incubated for 90 min at 25 C, and then stopped by the addition of 70 ul of Stop buffer (100 mM HEPES pH 7.5, 0.015% Brij-35, 10 mM EDTA (Sigma, E7889)).
The plate is read on a Caliper LC 3000 in an Off-Chip mobility shift assay format, on a 12-sipper chip. Unphosphorylated substrate and phosphorylated product peptide resolve as separate peaks allowing direct measurement of percentage of conversion of substrate to product. The percent conversion can be plotted against concentration of inhibitor to produce a sigmoidal dose response curve, from which an IC50 can be calculated using GeneData Condoseo or a similar product.

Compound	IC50 [µM]
CN(c1ncccc1CNc1ccnc2cc(-c3ccccc3)oc12)S(C)(=O)=O [Compound B20, N-Methyl-N-{3-[(2-phenyl-furo[3,2-b]pyridin-7-ylamino)-methyl]-pyridin-2-yl}-methanesulfonamide]	3 to 50
COc1cc(-c2cc3nccc(NCc4cccc(S(C)(=O)=O)c4)c3o2)cc(OC)c1OC [Compound B9]	3 to 50
COc1cc(-c2cc3nccc(-c4cc(C)c(OC)c(C)c4)c3o2)cc(OC)c1OC [Compound B73, 7-(4-Methoxy-3,5-dimethylphenyl)-2-(3,4,5-trimethoxyphenyl)furo[3,2-b]pyridine]	0.3 to 3
COc1cc(-c2cc3nccc(-c4ccc(C)c5ncccc45)c3o2)cc(OC)c1OC [Compound A26, 8-Methyl-5-[2-(3,4,5-trimethoxy-phenyl)-furo[3,2-b]pyridin-7-yl]-quinoline]	0.3 to 3
COc1cc(-c2cc3nccc(-c4cccc5ccccc45)c3o2)cc(OC)c1OC [Compound A22, 7-Naphthalene-1-yl-2-(3,4,5-trimethoxy-phenyl)-furo[3,2-b]pyridine]	0.3 to 3
CNC(=O)c1cccc(-c2ccnc3cc(-c4cc(OC)c(OC)c(OC)c4)oc23)c1 [Compound A7, N-Methyl-3-[2-(3,4,5-trimethoxy-phenyl)-furo[3,2-b]pyridin-7-yl]-benzamide]	< 0.3
Fc1cc(F)cc(-c2cc3nccc(-c4cc(F)cc(F)c4)c3o2)c1 [Compound B1, 2,7-Bis-(3,5-difluoro-phenyl)-furo[3,2-b]pyridine]	3 to 50
COc1cc(-c2cc3nccc(-c4ccc5ncccc5c4)c3o2)cc(OC)c1OC [Compound A23, 6-[2-(3,4,5-Trimethoxy-phenyl)-furo[3,2-b]pyridin-7-yl]-quinoline]	< 0.3
COc1cc(-c2cc3nccc(-c4cccc5ncccc45)c3o2)cc(OC)c1OC [Compound A18, 5-[2-(3,4,5-Trimethoxy-phenyl)-furo[3,2-b]pyridin-7-yl]-quinoline]	0.3 to 3
COc1cc(-c2cc3nccc(-c4cnn(C)c4)c3o2)cc(OC)c1OC [Compound A34, 7-(1-Methyl-1H-pyrazol-4-yl)-2-(3,4,5-trimethoxy-phenyl)-furo[3,2-b]pyridine]	< 0.3
COc1cc(-c2cc3nccc(-c4ccnc5ccccc45)c3o2)cc(OC)c1OC [Compound A24, 4-[2-(3,4,5-Trimethoxy-phenyl)-furo[3,2-b]pyridin-7-yl]-quinoline]	0.3 to 3
COc1c(C)cc(-c2cc3nccc(-c4cc(C)c(OC)c(C)c4)c3o2)cc1C [Compound B32, 2,7-Bis-(4-methoxy-3,5-dimethyl-phenyl)-furo[3,2-b]pyridine]	3 to 50
Cc1cc(C(=O)NC(C)(C)CO)cc(-c2cc3nccc(-c4ccccc4)c3o2)c1 [Compound A43, N-(2-Hydroxy-1,1-dimethyl-ethyl)-3-methyl-5-(7-phenyl-furo[3,2-b]pyridin-2-yl)-benzamide]	< 0.3
COc1cc(-c2cc3nccc(Nc4ccc5c(n4)NC(=O)C(C)(C)O5)c3o2)cc(OC)c1OC [Compound B29, 2,2-Dimethyl-6-[2-(3,4,5-trimethoxy-phenyl)-furo[3,2-b]pyridin-7-ylamino]-4H-pyrido[3,2-b][1,4]oxazin-3-one]	0.3 to 3
COc1cc(-c2cc3nccc(-c4ccc(C#N)cc4)c3o2)cc(OC)c1OC [Compound A12, 4-[2-(3,4,5-Trimethoxy-phenyl)-furo[3,2-b]pyridin-7-yl]-benzonitrile]	3 to 50
COc1cc(-c2cc3nccc(NCc4cccnc4N(C)S(C)(=O)=O)c3o2)cc(OC)c1OC [Compound B7, N-Methyl-N-(3-{[2-(3,4,5-trimethoxy-phenyl)-furo[3,2-b]pyridin-7-ylamino]-methyl}-pyridin-2-yl)-methanesulfonamide]	3 to 50
COc1cc(-c2cc3nccc(-c4ccccc4C)c3o2)cc(OC)c1OC [Compound A21, 7-o-Tolyl-2-(3,4,5-trimethoxy-phenyl)-furo[3,2-b]pyridine]	< 0.3
CC(C)(C#N)c1ccc(-c2cc3nccc(-c4ccc(C(C)(C)C#N)cc4)c3o2)cc1 [Compound B55, 2-(4-{2-[4-(Cyano-dimethyl-methyl)-phenyl]-furo[3,2-b]pyridin-7-yl}-phenyl)-2-methyl-propionitrile]	0.3 to 3
COc1ccc(-c2cc3nccc(-c4ccc(OC)cc4)c3o2)cc1 [Compound B35, 2,7-Bis-(4-methoxy-phenyl)-furo[3,2-b]pyridine]	3 to 50
COc1cc(-c2cc3nccc(-c4ccc(C(=O)NC5CCCC5)cc4)c3o2)cc(OC)c1OC [Compound B75, N-Cyclopentyl-4-(2-(3,4,5-trimethoxyphenyl)furo[3,2-b]pyridin-7-yl)benzamide]	3 to 50
COc1cc(-c2cc3nccc(-c4ccc5cc[nH]c5c4)c3o2)cc(OC)c1OC [Compound A27, 7-(1H-Indol-6-yl)-2-(3,4,5-trimethoxy-phenyl)-furo[3,2-b]pyridine]	< 0.3
O=C(Nc1ccc(Oc2ccnc3cc(-c4ccccc4)oc23)cc1)c1cccn(-c2ccc(F)cc2)c1=O [Compound B13, 1-(4-Fluoro-phenyl)-2-oxo-1,2-dihydro-pyridine-3-carboxylic acid [4-(2-phenyl-furo[3,2-b]pyridin-7-yloxy)-phenyl]-amide]	0.3 to 3
COc1cc(-c2cc3nccc(-c4cccc(OCc5ccccc5)c4)c3o2)cc(OC)c1OC [Compound A31, 7-(3-Benzyloxy-phenyl)-2-(3,4,5-trimethoxy-phenyl)-furo[3,2-b]pyridine]	3 to 50

Now from value to compound:

IC50 [µM]	Compound
< 0.3	COc1cc(-c2cc3nccc(-c4cccnc4)c3o2)cc(OC)c1OC [Compound C13]
0.3 to 3	COc1cc(-c2cc3nccc(-c4ccc[nH]4)c3o2)cc(OC)c1OC [Compound C105]
< 0.3	COc1cc(-c2cc3nccc(-c4ccc5[nH]c(=O)[nH]c5c4)c3o2)cc(OC)c1OC [Compound C56]
< 0.3	COc1cc(-c2cc3nccc(-c4cccc(C(=O)NCCO)c4)c3o2)cc(OC)c1OC [Compound C5]
0.3 to 3	c1ccc(-c2ccnc3cc(-c4ccc(N5CCOCC5)nc4)oc23)cc1 [Compound C25]
0.3 to 3	COc1cc(-c2cc3nccc(-c4ccc(OC5CCOCC5)nc4)c3o2)cc(OC)c1OC [Compound C28]
< 0.3	COc1cc(-c2cc3nccc(-c4ccccc4O)c3o2)cc(OC)c1OC [Compound C85]
0.3 to 3	Cn1cc(-c2ccnc3cc(-c4ccc(OCCN5CCCCC5)cc4)oc23)cn1 [Compound C36]
0.3 to 3	Oc1cccc(-c2cc3nccc(-c4ccccc4)c3o2)c1 [Compound C1]
3 to 50	Cn1cc(-c2ccnc3cc(-c4cccc(OCc5ccccc5)c4)oc23)cn1 [Compound C20]
0.3 to 3	Cn1cc(-c2ccnc3cc(-c4ccc(OCC(O)CN5CCCCC5)cc4)oc23)cn1 (stereo not shown) [Compound C38]
< 0.3	Cn1cc(-c2ccnc3cc(-c4ccc(C(C)(C)O)cc4)oc23)cn1 [Compound C100]
0.3 to 3	COc1cc(-c2cc3nccc(-c4cccc(C(=O)NCC5CCCN5C(=O)OC(C)(C)C)c4)c3o2)cc(OC)c1OC (stereo not shown) [Compound C7]
0.3 to 3	COc1cc(-c2cc3nccc(-c4cnn(C)c4)c3o2)ccn1 [Compound C16]
0.3 to 3	Cn1cc(-c2ccnc3cc(-c4ccc([S+](C)[O-])cc4)oc23)cn1 (stereo not shown) [Compound C54]
0.3 to 3	CC(=O)c1ccc(-c2cc3nccc(-c4cnn(C)c4)c3o2)cc1 [Compound C95]
0.3 to 3	COc1cc(-c2cc3nccc(-c4csc(N(C)C)n4)c3o2)cc(OC)c1OC [Compound C79]
0.3 to 3	c1ccc(-c2ccnc3cc(-c4ccc(N5CCOCC5)cc4)oc23)cc1 [Compound C50]
< 0.3	Cn1ncc2cc(-c3cc4nccc(-c5cccc(C(=O)N[C@@H]6CCCC[C@@H]6N)c5)c4o3)ccc21 [Compound C175]
0.3 to 3	CC(C)Cn1cc(-c2cc3nccc(-c4cnn(C)c4)c3o2)cn1 [Compound C6]
3 to 50	CN1CCN(c2cc(-c3cc4nccc(-c5ccnc(N6CCN(C)CC6)c5)c4o3)ccn2)CC1 [Compound C96]
0.3 to 3	COc1cc(-c2cc3nccc(-c4ccccc4C(C)C)c3o2)cc(OC)c1OC [Compound C14]
0.3 to 3	Cn1cc(-c2ccnc3cc(-c4ccc(OC(F)(F)F)cc4)oc23)cn1 [Compound C32]
